Source: publication PMC5678291, “Molecular Mechanism of Enzymatic Chlorite Detoxification: Insights from Structural and Kinetic Studies” (ACS Catalysis, 2017)

Legend:
CCld = target: T1, CCld (Cyanothece sp. PCC 7425, UniProt B8HNS6); experiment: UV-vis titration; format: binding; conditions: read-out: dissociation constant
T1 construct: gene Cyan7425_1434

Arg127 = Arg127 (UniProt position 127, LPGVARRLLHC); experiment: neutron; conditions: 293 K; 0.15 M MgSO4; 0.1 M glycine-NaOH pH 9.0, 0.15 M MgSO4, 30% PEG 3350, 5% glycerol; Ferric CCld crystal, hydroxide (OD-) bound to the haem iron, Arg127 in the 'out' conformation

T1 sequence (B8HNS6 entry or part of it): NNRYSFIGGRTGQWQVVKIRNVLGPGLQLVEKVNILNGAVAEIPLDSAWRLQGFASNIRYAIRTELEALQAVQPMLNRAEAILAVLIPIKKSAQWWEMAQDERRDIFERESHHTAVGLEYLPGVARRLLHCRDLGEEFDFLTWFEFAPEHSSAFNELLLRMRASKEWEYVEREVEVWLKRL

Molecule	Kd (CCld)	pKa (Arg127)
F [F^–, fluoride]	12.6 mM	
N#CS [SCN^–, thiocyanate]	0.074 mM	
Chlorite dismutase (CCld) (Cyanothece sp. PCC7425)		>9.0 (protonated at pH 9.0)
